{
  "source": "patent US5624906A",
  "about": "“Oral hygiene compositions comprising heteroatom containing alkyl aldonamide compounds” (Lever Brothers Company, Division of Conopco, Inc., priority 1994, dated 1997)",
  "key": {"[1]": {"conditions": "25 °C; cited from earlier work"}, "[2]": {"experiment": "Effectiveness of adsorption (surface excess concentration, Gibbs equation)", "format": "physicochemical", "excerpt": "The surface excess concentration at surface saturation (Γmax) is defined as a measure of the effectiveness of surfactant adsorption at the water/air interface and represents the maximum value to which adsorption can be obtained. Effectiveness of adsorption is related to the interfacial area occupied by the surfactant molecule. The smaller the effective cross-sectional area of a surfactant at the interface, the greater its effectiveness of adsorption. The effectiveness of adsorption is an important factor in determining surfactant properties such as detergency, foaming, wetting or emulsification. While not wishing to be bound by theory, it is believed that surfactants that absorb effectively at the interface tend have tightly packed coherent interfacial films and often provide better surfactant benefits than those with loosely packed noncoherent films. The effectiveness of adsorption of C8 /C10 oxypropyl D-gluconamide was determined using the Gibbs equation given as: […]\n(∂γ/∂log[Conc])T"}, "[3]": {"conditions": "cited from earlier work"}, "[4]": {"experiment": "Effectiveness in reducing surface tension (surface pressure at CMC)", "format": "physicochemical", "conditions": "60 °C", "excerpt": "As mentioned before, surface tension reduction depends on the replacement of water molecules at the interface by surfactant molecules, therefore the effectiveness of a surfactant in reducing interfacial surface tension should reflect the saturated concentration of surfactant at the interface relative to that in bulk liquid phase. During this process the surface tension of water steadily decreases as bulk phase surfactant concentration increases. This will continue until the concentration reaches the critical micelle concentration (CMC), above which the surface tension remains nearly unchanged and the interface is saturated with surfactant. The surface tension at the CMC is therefore very close to the minimum interfacial tension or maximum surface pressure that the system can achieve. The surface pressure at this point, IIcmc, is a suitable measure of the effectiveness of a surfactant in reducing surface tension and is given as:\nIIcmc =20+2.3nRT(Γmax) log[CMC/C20 ]\nn=1 which represents the number of ions whose surface concentration changes with the change in liquid phase surfactant concentration.\nCMC/C20 =is the ratio of the critical micelie concentration to the bulk phase surfactant concentration necessary to reduce the surface tension of water by 20 dyn/cm."}, "[5]": {"conditions": "cited from earlier work", "remark": "listed apart in the source"}, "[6]": {"experiment": "Surface tension at the water/air interface", "format": "physicochemical", "conditions": "60 °C", "description": "An important characteristic feature that surfactants have is the tendency for them to absorb at the water/air interface in an oriented manner, thereby altering the interfacial free energy of that surface. The surface free energy per unit area or surface tension (T), is a measure of this work and may be considered as the minimum amount of work required to bring sufficient surfactant molecules to the surface.\nThe surface tension (t) value of C8 /C10 oxypropyl D-gluconamide was determined and is set forth below: […]"}, "[7]": {"experiment": "Packing parameter / micellar shape", "format": "physicochemical", "excerpt": "A theory of miceliar structure, based upon the geometry of various micelie shapes and the space occupied by the surfactant has been disclosed by J. N. Israelachvili, D. J. Mitchell and B. W. Ninham in the J. Chem. Soc. Faraday Trans. 2, 1525, 72, (1976) which is given as the packing parameter (p).\nVT=V(CH3) +(nc -1)V(CH2) and represents the volume occupied by the hydrophobic groups in the miceIlar core at a given temperature.\n1c =1.50+1.26 nc Å and represents the length of the hydrophobic group in the core.\nam =area per molecule or the cross-sectional area occupied by the hydrophilic group at the interface."}, "Krafft point": {"experiment": "Krafft point", "format": "physicochemical", "conditions": "0.1% in water"}, "[8]": {"experiment": "Viscosity enhancement of sodium/ammonium lauryl sulfate compositions (formulation Example 86)", "format": "physicochemical", "conditions": "4.0% thickener, 2395/22"}, "[9]": {"experiment": "Clarity of prototype surfactant compositions (Example 87)", "format": "physicochemical", "conditions": "room temperature, 6 months", "description": "The prototype shampoo composition is as follows:\n(§1) The above formulations were prepared by admixing the above ingredients in listed order and heating the mixture to about 80° C. with rapid stirring. The mixture was then cooled to about 40° C., placed in a clear jar and stored at room temperature for 6 months."}, "[10]": {"experiment": "Viscosity of sodium lauryl sulfate compositions (Example 88)", "format": "physicochemical", "conditions": "for Viscosity: 22° C.", "description": "The prototype surfactant composition is as follows:\nas §1\nIt is well known that the viscosity of a liquid composition comprising of anionic surfactant can be modified by the addition of inorganic salts, such as sodium chloride. However, in the absence of an organic modifier, high levels of salt may be necessary to achieve the required viscosity which may lead to problems of storage at cold temperature or even salting out certain ingredients. In practice, however, the viscosity of a liquid composition is modified by the simultaneous addition of thickener and small amounts of inorganic salt (viscosity cobuilder). The combined effect is greater than either one alone. The viscosity of the above prototype surfactant composition comprising various amounts of heteroatom containing alkyl aldonamide compound is as follows: […]"}, "zein": {"system": "zein", "excerpt": "The zein solubilization assay was developed to determine the biological effects of surfactants on the skin. The protein is normally in soluble in water, but can be brought into solution by interaction with surfactants. The extent of zein dissolved is related to the irritation potential (M. J. Schwinger, Kolloid-Z. Z. Poly., 233, 848, 1969). The greater the zein solubilization, the greater the irritation potential of that surfactant on the skin.\nThus, a 1% solution of surfactant (30 mls) was added to 1.5 g of zein and stirred at room temperature for 1 hour. Residual zein was collected and dried to constant weight. Differences between starting and residual weights were used to calculate % zein solubilized."}, "[11]": {"experiment": "Efficiency in surface tension reduction (pC20)", "format": "physicochemical", "conditions": "60 °C", "excerpt": "Since surface tension reduction depends on the replacement of water molecules at the interface by surfactant molecules, the efficiency of a surfactant in reducing interfacial tension should reflect the concentration of surfactant at the interface relative to that in bulk liquid phase. […] This is defined as the negative logarithm of the bulk phase surfactant concentration necessary to reduce the surface tension of water by 20 dyn/cm and is given as:\nC(-Δγ=20) =C20 is the bulk phase surfactant concentration necessary to reduce the surface tension of water by 20 dyn/cm.\nIn general, pC20 values are usually close to the minimum concentration needed to saturate the interface with surfactant molecules."}},
  "note": "Where two headings read alike, the source gives them in different places.",
  "data": [
    {"compound": "CCCCCCCCCCCCOCCOCCOCCOCCOCCOCCOCCOCCO", "note": "[Dodecylocta(oxyethylene) Ether]", "values": [
      {"measurement": "pC20", "setting": "[1]", "value": 5.20},
      {"measurement": "Γmax (surface excess concentration at surface saturation)", "setting": "[2]; 60 °C, estimated by extrapolating a linear line", "value": "2.40 × 10^-10 mole/cm^2"},
      {"measurement": "Γmax (surface excess concentration at surface saturation)", "setting": "[3]; 25 °C", "value": "2.52 × 10^-10 mole/cm^2"},
      {"measurement": "Γmax (surface excess concentration at surface saturation)", "setting": "[3]; 40 °C", "value": "2.46 × 10^-10 mole/cm^2"},
      {"measurement": "Πcmc (surface pressure)", "setting": "[4]; estimated by extrapolating a linear line", "value": 36.3, "unit": "dyn/cm"},
      {"measurement": "Πcmc (surface pressure)", "setting": "[5]; 25 °C", "value": 37.2, "unit": "dyn/cm"},
      {"measurement": "Πcmc (surface pressure)", "setting": "[5]; 40 °C", "value": 37.3, "unit": "dyn/cm"}
    ]},
    {"compound": "C8 /C10 oxypropyl D-gluconamide", "values": [
      {"measurement": "Surface tension γ", "setting": "[6]", "value": 29.2, "unit": "dyn/cm"},
      {"measurement": "1a (length of the hydrophobic group in the core)", "setting": "[7]; T=333.15 K", "value": 17.5, "unit": "Å"},
      {"measurement": "micelles predicted from packing parameter", "setting": "[7]; aqueous media", "value": "cylindrical to lameliar micelles"},
      {"measurement": "slope of a plot of γ versus log[Conc]", "setting": "[2]; T=333.15 K", "value": -24.57, "unit": "ergs/cm^2"},
      {"measurement": "Krafft Point (0.1%)", "setting": "Krafft point", "value": 48, "unit": "°C"},
      {"measurement": "increase of viscosity from its normal viscosity", "setting": "[8]", "value": 109, "unit": "times"},
      {"measurement": "Appearance", "setting": "[9]; 3.0% in […] sodium lauryl sulfate", "value": "Clear"},
      {"measurement": "Appearance", "setting": "[9]; 4.0% in […] sodium lauryl sulfate", "value": "Clear"},
      {"measurement": "Appearance", "setting": "[9]; 5.0% in […] sodium lauryl sulfate", "value": "Clear"},
      {"measurement": "CMC/C20", "setting": "[4]", "value": 5.7},
      {"measurement": "Πcmc (surface pressure)", "setting": "[4]", "value": 38.5, "unit": "dyn/cm"},
      {"measurement": "Viscosity Increase", "setting": "[10]; 1.0% thickener", "value": 13, "unit": "x"},
      {"measurement": "Viscosity", "setting": "[10]; 1.0% thickener", "value": 200, "unit": "Centipoise"},
      {"measurement": "Viscosity Increase", "setting": "[10]; 2.0% thickener", "value": 27, "unit": "x"},
      {"measurement": "Viscosity", "setting": "[10]; 2.0% thickener", "value": 400, "unit": "Centipoise"},
      {"measurement": "Viscosity Increase", "setting": "[10]; 3.0% thickener", "value": 80, "unit": "x"},
      {"measurement": "Viscosity", "setting": "[10]; 3.0% thickener", "value": 1200, "unit": "Centipoise"},
      {"measurement": "Viscosity Increase", "setting": "[10]; 4.0% thickener", "value": 148, "unit": "x"},
      {"measurement": "Viscosity", "setting": "[10]; 4.0% thickener", "value": 2220, "unit": "Centipoise"},
      {"measurement": "Viscosity Increase", "setting": "[10]; 5.0% thickener", "value": 860, "unit": "x"},
      {"measurement": "Viscosity", "setting": "[10]; 5.0% thickener", "value": 12900, "unit": "Centipoise"},
      {"measurement": "% Zein Solubilized", "setting": "zein", "value": 6, "unit": "%"},
      {"measurement": "pC20", "setting": "[11]", "value": 4.78}
    ]}
  ]
}
